Measured values reported in PubChem BioAssay AID608 (Sanford-Burnham Center for Chemical Genomics, 2007).
“And” between values parts separate entries of the source, which are not always exact repeats. Equal entries are not always repeated. The source made the active and inactive calls. The rule behind the calls is not given here.

biological target: Peptidyl-prolyl cis-trans isomerase FKBP1A (Homo sapiens) (UniProt P62942); assay: FKBP12 binders, biophysical, NMR detection (AID 608); conditions: NMR binding, purified FKBP12
Sequence (P62942 whole entry, looked up): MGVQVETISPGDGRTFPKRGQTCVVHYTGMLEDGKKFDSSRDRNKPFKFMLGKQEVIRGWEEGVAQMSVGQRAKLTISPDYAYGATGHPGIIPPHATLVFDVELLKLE

Structure (SMILES) | Kd
Cc1cc(O)c(NC(=O)c2ccco2)cc1C | > 4 mM (inactive)
CS(C)=C1C(=O)NC(=O)N(Cc2ccc(F)cc2)C1=O | > 4 mM (inactive)
Cc1cc(C)nc(/N=C(/N)Nc2cccc(F)c2)n1 | > 4 mM (inactive)
CN(C(N)=O)C1(C)CCS(=O)(=O)C1 (stereo not drawn) | > 4 mM (inactive)
COc1cc(O)cc(/C=C/c2ccccc2)c1 | > 4 mM (inactive)
CC(C)CCn1cnc2c1c(=O)n(C)c(=O)n2C | > 4 mM (inactive)
CC1(C)Cc2nc(N3CCOCC3)c(C#N)cc2CO1 | > 4 mM (inactive)
COc1ccc2c(c1OC)C(=O)O[C@H]2[C@H]1c2cc3c(cc2CCN1C)OCO3 | > 4 mM (inactive)
O=C(O)c1cc2ccccc2cn1 | > 4 mM (inactive)
O=C(O)c1ccc(N2CCOCC2)nc1 | > 4 mM (inactive)
Cc1nn(C)c(Cl)c1S(=O)(=O)N1CCOCC1 | > 4 mM (inactive)
O=C1C=CC(=O)N1c1ccccc1O | > 4 mM (inactive)
O=C1NC(=O)C(C(C[N+](=O)[O-])c2ccc(O)cc2)C(=O)N1 (stereo not drawn) | > 4 mM (inactive)
COc1ccccc1/C=C\C(=O)O | > 4 mM (inactive)
CC(C)Nc1ncnc2c1nnn2C | > 4 mM (inactive)
O=C(O)c1ccc(-c2cccs2)cc1 | > 4 mM (inactive)
CCC1=Nc2ccccc2-c2nnc(SC)nc2O1 | > 4 mM (inactive)
CC1=C(C(N)=O)C(c2ccccc2)NC(=O)N1 (stereo not drawn) | > 4 mM (inactive)
O=C(O)c1cccnc1Oc1ccccc1 | > 4 mM (inactive)
COc1ccc(Cl)cc1NS(=O)(=O)N1CCCCC1 | inactive
CN(C)CC(O)C1CCOC(C)(C)C1 (stereo not drawn) | > 4 mM (inactive)
NC(=O)c1cccc2c1OCCO2 | > 4 mM (inactive)
Cc1ccc(C(=O)N2CCC(C(=O)O)CC2)cc1 | > 4 mM (inactive)
NCCNC(=S)Nc1ccccc1 | > 4 mM (inactive)

Structure (SMILES) | Kd
CC(=O)c1c(O)n(C)c(=S)n(C)c1=O | > 4 mM (inactive)
O=c1cnnc(SCCc2ccccc2)[nH]1 | > 4 mM (inactive)
O=S1(=O)NC(=NCc2ccccc2)c2ccccc21 | > 4 mM (inactive)
Cc1ccc(OCC(=O)n2cnnc2N)c(C)c1 | > 4 mM (inactive)
COc1ccc2[nH]cc(CN(C)C)c2c1 | > 4 mM (inactive)
CC(=O)O[C@]1(C)CC[C@@]23CC1C(C)(C)[C@@H]2CC[C@H]3C | > 4 mM (inactive)
CC(=O)c1ccc(NS(=O)(=O)c2cccc(C)c2)cc1 | > 4 mM (inactive)
CC(=O)N1CCn2c3c(c(=O)c4cc(C)ccc42)CCC31 (stereo not drawn) | > 4 mM (inactive)
NC(=O)Cn1nc(-c2ccc(F)cc2)ccc1=O | > 4 mM (inactive)
CS(C)=C1C(=O)NC(=O)N(c2ccccc2)C1=O | > 4 mM (inactive)
Nc1ncnc2nc(SCCN3CCCCC3)[nH]c12 | > 4 mM (inactive)
NC(=O)CSc1ccc2nnc(-c3ccccc3)n2n1 | > 4 mM (inactive)
COc1ccc(-c2cc3nc4n(c(=O)c3s2)CCC4)cc1 | > 4 mM (inactive)
Cc1nc2ccccc2n1S(=O)(=O)N1CCCCC1 | inactive
O=C(O)CS(=O)(=O)c1ccccc1[N+](=O)[O-] | > 4 mM (inactive)
O=C1CNC(=O)N1c1cccc(Cl)c1 | > 4 mM (inactive)
O=C1OC(N2CCOCC2)c2ccccc21 (stereo not drawn) | > 4 mM (inactive)
Cc1nc2ccccc2c(=O)n1N1C(=O)CCCC1=O | > 4 mM (inactive)
Cc1cc(N)cc(C)c1OCC(=O)N1CCOCC1 | > 4 mM (inactive)
Cn1c2c(c(=O)n(C)c1=O)CN(Cc1ccco1)CN2 | > 4 mM (inactive)
CC(=O)Oc1ccc2c(c1)c(C(C)=O)c(C)n2C | > 4 mM (inactive)
CC(=O)c1cc(C(N)=O)c(=S)[nH]c1C | > 4 mM (inactive)
CN1CCC(NC(=O)Cc2c(F)cccc2Cl)CC1 | > 4 mM (inactive)
Cc1sc2nc(SC3CCOC3=O)[nH]c(=O)c2c1C (stereo not drawn) | > 4 mM (inactive)

Structure (SMILES) | Kd
CS(=O)(=O)N1CCN(C(=O)Cc2cccs2)CC1 | > 4 mM (inactive)
Cc1cc(C)n2nc(C(=O)NCc3ccco3)nc2n1 | > 4 mM (inactive)
Cc1ccc2nc(SCCC#N)nc(C)c2c1 | > 4 mM (inactive)
O=C(CSc1ccc(Cl)cc1)N1CCOCC1 | 0.014 mM and 0.019 mM
NC(=S)NC(=O)CN1C(=O)c2ccccc2C1=O | > 4 mM (inactive)
CSc1ccccc1NC(=O)c1ccc(C)o1 | > 4 mM (inactive)
CC(C)c1ccc(S(=O)(=O)CC(=O)N2CCOCC2C(=O)OCCCc2cccnc2)cc1 (stereo not drawn) | inactive
O=c1c2c(nc3nc(COc4ccccc4)[nH]n13)CCC2 | > 4 mM (inactive)
NCc1ccc(-n2cccc2)cc1 | > 4 mM (inactive)
COc1ccc2c(c1)OC/C(=C/c1ccc(OC)c(OC)c1)C2=O | > 4 mM (inactive)
Cc1nn(C)c(C)c1NC(=S)NC1CCCC1 | > 4 mM (inactive)
Nc1nnc(SCc2ccc(F)cc2Cl)s1 | > 4 mM (inactive)
Cc1nc2ccccc2c(=O)n1NC(=O)Nc1ccccc1 | > 4 mM (inactive)
CC(C)c1ccc(OCC(=O)N2CCOCC2)cc1 | 0.394 mM
CC(C)(C)C(=O)N1CCCC1C(=O)O (stereo not drawn) | > 4 mM (inactive)
C[C@H]1[C@H](C)CC[C@]2(C(=O)O)CC[C@]3(C)C(=CCC4[C@@]5(C)C[C@@H](O)[C@H](O)[C@@](C)(CO)C5[C@H](O)C[C@]43C)[C@H]12 (stereo partly drawn) | > 4 mM (inactive)
N#Cc1cn(CC(=O)N2CCCC2)c2ccccc12 | > 4 mM (inactive)
CC(=O)O[C@@H]1CC2C(C)(C)C(=O)[C@@H]3O[C@@H]3[C@]2(C)C2CC[C@]3(C)C(=CC(=O)O[C@H]3c3ccoc3)[C@@]21C (stereo partly drawn) | > 4 mM (inactive)
CN1CCN(CC(=O)N2CCc3ccccc32)CC1 | > 4 mM (inactive)
Nc1c(N2CCCC2)cnn(-c2ccccc2)c1=O | > 4 mM (inactive)
OCC1CCCC1O (stereo not drawn) | > 4 mM (inactive)
CC(C)c1ccc(CCC(=O)N2CCOCC2)cc1 | 0.0023 mM
CCOC(=O)C1C(=O)C2CCN1CC2 (stereo not drawn) | > 4 mM (inactive)
CC1(C)C[C@@H]2C(=O)CC[C@H]3O[C@]3(C)CC[C@H]21 | > 4 mM (inactive)

Structure (SMILES) | Kd
CN(c1ccc(C(=O)N2CCCCC2)cc1)S(C)(=O)=O | > 4 mM (inactive)
CCn1cnc2scc(-c3ccccc3)c2c1=O | > 4 mM (inactive)
CC(=O)c1cccc(NC(=O)N2CCc3ccccc3C2)c1 | > 4 mM (inactive)
COCCOc1nc2ccccc2nc1C | > 4 mM (inactive)
NC(=O)c1oc2ccccc2c1N | > 4 mM (inactive)
Cc1nc2sc3c(c2c(=N)n1N)CC(C)(C)OC3 | > 4 mM (inactive)
COc1ccc(-c2oc3ccccc3c(=O)c2O)cc1OC | > 4 mM (inactive)
NC(=O)CSc1nc2ccccc2o1 | > 4 mM (inactive)
CN1CCN(C(=O)Nc2cccc3ccccc23)CC1 | > 4 mM (inactive)
CC1=NNC(=O)C1CCc1ccncc1 (stereo not drawn) | > 4 mM (inactive)
Cc1nc(NCc2ccco2)nc2c1C(=O)CC(C)C2 (stereo not drawn) | > 4 mM (inactive)
CCC(C)C(=O)OC1[C@@H]2CC3=C4CC(=O)O[C@@H](c5ccoc5)[C@]4(C)CCC3C(C)(C2=O)[C@@H](CC(=O)OC)C1(C)C (stereo partly drawn) | > 4 mM (inactive)
NC(=O)CC1NC(=O)c2ccccc21 (stereo not drawn) | > 4 mM (inactive)
Cn1c(CN)nc2ccccc21 | > 4 mM (inactive)
Cn1c(SCC(N)=O)nnc1-c1c[nH]c2ccccc12 | > 4 mM (inactive)
CC(=O)Nn1cc2c(=O)n(C)c(=O)n(C)c2c1 | > 4 mM (inactive)
Nc1ccc(-c2csnn2)cc1 | > 4 mM (inactive)
O=C(Cn1cncn1)c1ccc(F)c(F)c1 | > 4 mM (inactive)
OC[C@H]1O[C@@H](n2cnc3c(NCc4ccco4)ncnc32)[C@H](O)[C@@H]1O | > 4 mM (inactive)
O=c1[nH]cc(N2CCCCC2)c(=O)[nH]1 | > 4 mM (inactive)
O=C(O)CCC(=O)Nc1nnc(C(F)(F)F)s1 | > 4 mM (inactive)
COc1cccc2onc(N)c12 | > 4 mM (inactive)
CCOC(=O)c1c(SC)nc(=O)[nH]c1C | > 4 mM (inactive)
CC(C)C(=O)NC(=S)N1CCOCC1 | > 4 mM (inactive)

Structure (SMILES) | Kd
COc1cccc(-c2nc3ccc(O)cc3c(=O)o2)c1 | > 4 mM (inactive)
Cn1c(=O)[nH]c(=O)c2nsnc21 | > 4 mM (inactive)
CCN1CCn2c1nc(N1CCOCC1)nc2=O | > 4 mM (inactive)
CC(=O)Nc1ccc(N2C(=O)C=CC2=O)cc1C | > 4 mM (inactive)
O=C(O)Cn1cc(C(=O)c2cccs2)c2ccccc21 | > 4 mM (inactive)
Cc1cc(C)n2nc(-c3cccnc3)nc2n1 | > 4 mM (inactive)
O=C1CCCc2c1nc(-c1ccccc1)n2O | > 4 mM (inactive)
CC1(C)C2CC[C@]3(C)C(C(=O)C=C4[C@H]5C[C@@](C)(C(=O)O)CC[C@]5(C)CC[C@]43C)[C@@]2(C)CC[C@@H]1O (stereo partly drawn) | > 4 mM (inactive)
NS(=O)(=O)c1ccc(NC(=S)NC2CC2)cc1 | > 4 mM (inactive)
Nc1cccc(C(=O)Nc2ccc(N)cc2Cl)c1 | > 4 mM (inactive)
CC(=O)O[C@@H]1CC2C(C)(C)[C@H](O)C=C[C@]2(C)C2CC[C@]3(C)C(=CC(=O)O[C@H]3c3ccoc3)[C@@]21C (stereo partly drawn) | > 4 mM (inactive)
Cc1cc(N)no1 | > 4 mM (inactive)
O=C(O)CCC1NCC2CC1CN1CCCCC21 (stereo not drawn) | > 4 mM (inactive)
Nc1ccc2c(C(F)(F)F)cc(=O)oc2c1 | > 4 mM (inactive)
Cc1cc(C(=O)NC(C)c2ccncc2)no1 (stereo not drawn) | > 4 mM (inactive)
CCOC(=O)c1c(-c2ccncc2)csc1N | > 4 mM (inactive)
CNc1nnc(Cc2csc(N)n2)s1 | > 4 mM (inactive)
Cc1cc(O)c(C)c(O)c1C(=O)O | > 4 mM (inactive)
C=C[C@@](C)(O)CCC1C(=C)CCC2[C@@](C)(CO)CCC[C@]12C (stereo partly drawn) | > 4 mM (inactive)
CC(=O)c1sc(NC(=O)C=C(C)C)nc1C | > 4 mM (inactive)
Cc1cn(C(=O)CN2C(=O)c3ccccc3C2=O)c(C)n1 | > 4 mM (inactive)
O=C(CSc1ncn[nH]1)c1ccc2c(c1)OCCO2 | > 4 mM (inactive)
